Measurements from patent publication US10766882B2, “1,2-naphthoquinone based derivative and method of preparing the same” (YUNGJIN PHARM. CO., LTD., priority 2013, dated 2020).

Legend:
[1] = target: NQO1 protein (Homo sapiens, UniProt P15559); assay: NQO1 activity measurement (cytochrome C reduction); type: biochemical; settings: 5 ng NQO1 protein, 200 μM NADH, 77 μM cytochrome C, 37° C., absorbance 550 nm for 10 minutes
Protocol: An enzyme reaction solution included 25 mM Tris/HCl (pH 7.4), 0.14% bovine serum albumin, 200 μM NADH, 77 μM cytochrome C, and 5 ng of NQO1 protein. Enzymatic reaction was initiated by adding NADH and performed at 37° C. In this regard, a reaction rate was measured by observing absorbance, which was increased due to reduction of cytochrome C, at 550 nm for 10 minutes and NQO1 activity was represented as an amount of reduced cytochrome C [nmol cytochrome C reduced/min/μg protein].
Extinction coefficient for cytochrome C:21.1 mmol/L/cm=21.1 μmol/ml/cm

[2] = system: Cells; assay: Measurement of lactate change amount within cells; type: cell-based; settings: PCA extract of cells, lactate measured from supernatant (Megazyme, K-LATE)
Protocol: Cells were treated with 400 μl of 6% PCA, and then collected and extracted. Centrifugation (13,000 rpm, 10 min) was performed. A precipitate was dried using a Speed-Vac and then a weight of dried precipitate was measured. A supernatant was neutralized using 400 μl of 1 M KOH and a final volume thereof was adjusted to 1 ml using 0.33 M KH2PO4/K2HPO4, pH 7.5. Centrifugation (13,000 rpm, 10 min) was performed and the amount of lactate was measured from a supernatant (Megazyme, K-LATE).

[3] = system: C57BL/6J Lep ob/ob mice; assay: Weight loss effects in obese mice (ob/ob); type: in vivo; settings: Exp. Ex. 3-3, FIG. 3: 11 week-old ob/ob mice, 100 mg/kg oral, total of 6 days, vs 0.1% SLS controls
Protocol: 10 week-old C57BL/6J Lep ob/ob mice having genetic obesity characteristics available from ORIENTBIO were prepared. Two mice were raised in each polycarbonate breeding cage (200 W×260 L×130H (mm), Three-shine) in which temperature was 20 to 24° C., relative humidity was 35 to 65%, illuminance was 150 to 300 lux, night and day were 12 hours, and exhaust was performed at 10 to 15 air changes per hour. As a feed, low fat diet (11.9 kcal % fat, 5053, Labdiet) manufactured by ORIENTBIO was used. The feed was contained in a feeder and free intake was allowed. As drinking water, water, which was contained in a 250 mL polycarbonate based bottle, purified through a filter and a sterilizer was used and free intake was allowed.
The compound according to Example 1 synthesized in the present invention was orally administered to three C57BL/6J Lep ob/ob mice in amounts of 40 mg/kg, 80 mg/kg, and 120 mg/kg, respectively, once every day for two weeks. For administration, a disposable syringe fitted with a sonde for oral administration was used and 10 ml/kg of the compound was orally administered into the stomach. As controls, three C57BL/6J Lep ob/ob mice were administered 0.1% sodium lauryl sulfate (SLS) in an amount of 120 mg/kg in the same manner as described above. After administration, a time-dependent weight increase ratio, weight change, and intake amount were measured and results are illustrated in FIG. 1 below.
Weights of the experimental animals were measured immediately before administration of a test material and seven times a week from an administration initiation day to a test termination day. Increased total weights were calculated by subtracting weights measured on an experiment initiation day from weights measured one day before an experiment termination day. Food intake amounts were calculated by measuring feed supply amounts and remaining amounts twice a week from an initiation day of test material administration to a test termination day for each individual. […]
(§1) Experiments were performed under the same conditions as in Experimental Example 3-1 except that 15 week-old C57BL/6J Lep ob/ob mice having genetic obesity characteristics available from ORIENTBIO were prepared, the compounds according to Examples 5 and 6 were administered to three C57BL/6J Lep ob/ob mice in an amount of 150 mg/kg, 150 mg/kg of 0.1% SLS was administered to each of three C57BL/6J Lep ob/ob mice as controls, and experiments were performed for a total of one week. Weight increase ratios, weight change, and intake amounts depending on administration time were measured and results are illustrated in FIG. 5 below.
as §1, with “that 10” for “that 15”, “Examples 8, 9,” for “Examples 5”, “and 12” for “and 6”, “FIG. 6” for “FIG. 5”
Experiments were performed under the same conditions as in Experimental Example 3-1 except that 6 week-old C57BL/6J Lep ob/ob mice having genetic obesity characteristics available from ORIENTBIO were prepared, the compounds according to Examples 17, 18, 22, and 23 were administered to three C57BL/6J Lep ob/ob mice in an amount of 100 mg/kg, 100 mg/kg of 0.1% SLS was administered to each of three C57BL/6J Lep ob/ob mice as controls, and experiments were performed for a total of one week. Weight increase ratios, weight change, and intake amounts depending on administration time were measured and results are illustrated in FIG. 10 below. […]

NQO1 protein, sequence (P15559 whole entry, species assumed): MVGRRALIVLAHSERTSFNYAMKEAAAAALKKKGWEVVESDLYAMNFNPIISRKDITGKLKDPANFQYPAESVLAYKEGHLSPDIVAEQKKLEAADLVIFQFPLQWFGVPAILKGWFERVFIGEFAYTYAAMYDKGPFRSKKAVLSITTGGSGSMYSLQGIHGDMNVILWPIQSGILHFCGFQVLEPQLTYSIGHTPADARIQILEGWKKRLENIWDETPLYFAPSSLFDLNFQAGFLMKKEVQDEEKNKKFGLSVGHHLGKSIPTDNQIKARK

## CC(C)c1nc2c(n1Cc1ccccc1)-c1ccccc1C(=O)C2=O [Example 2, 1-benzyl-2-isopropyl-1H-naphtho[2,1-d]imidazole-4,5-dione]
[1]
  NQO1 activity (5 μM, [nmol cytochrome C reduced/min/μg protein]): 143 nmol cytochrome C reduced/min/μg protein
[2]
  Lactate change amount within cells (nmol/mg cell): 7.3 nmol/mg cell

## CC(C)(C)c1nc2c([nH]1)C(=O)C(=O)c1ncccc1-2 [Example 7, 2-tert-butyl-3H-imidazo[4,5-f]quinoline-4,5-dione]
[1]
  NQO1 activity (5 μM, [nmol cytochrome C reduced/min/μg protein]): 55 nmol cytochrome C reduced/min/μg protein
[2]
  Lactate change amount within cells (nmol/mg cell): 11.4 nmol/mg cell

## COc1ccc(-c2nc3c([nH]2)C(=O)C(=O)c2ccccc2-3)cc1 [Example 10]
[1]
  NQO1 activity (5 μM, [nmol cytochrome C reduced/min/μg protein]): 103 nmol cytochrome C reduced/min/μg protein
[2]
  Lactate change amount within cells (nmol/mg cell): 9.9 nmol/mg cell

## O=C1C(=O)c2[nH]c(Cc3ccccc3)nc2-c2ccccc21 [Example 11]
[1]
  NQO1 activity (5 μM, [nmol cytochrome C reduced/min/μg protein]): 178 nmol cytochrome C reduced/min/μg protein
[2]
  Lactate change amount within cells (nmol/mg cell): 7.2 nmol/mg cell

## O=C1C(=O)c2nccnc2-c2ccccc21 [Example 13]
[1]
  NQO1 activity (5 μM, [nmol cytochrome C reduced/min/μg protein]): 291 nmol cytochrome C reduced/min/μg protein
[3]
  intake amount: significantly decreased
  weight increase ratio: significantly decreased

## Cn1c(C(C)(C)C)nc2c1-c1cccnc1C(=O)C2=O [Example 14]
[1]
  NQO1 activity (5 μM, [nmol cytochrome C reduced/min/μg protein]): 179 nmol cytochrome C reduced/min/μg protein
[2]
  Lactate change amount within cells (nmol/mg cell): 12.4 nmol/mg cell

## CC(C)(C)Cc1nc2c([nH]1)C(=O)C(=O)c1ccccc1-2 [Example 15, 2-neopentyl-1H-naphtho[2,1-d]imidazole-4,5-dione]
[1]
  NQO1 activity (5 μM, [nmol cytochrome C reduced/min/μg protein]): 183.3 nmol cytochrome C reduced/min/μg protein
[2]
  Lactate change amount within cells (nmol/mg cell): 7.2 nmol/mg cell

## CC(C)c1nc2c([nH]1)C(=O)C(=O)c1cc([N+](=O)[O-])ccc1-2 [Example 16]
[1]
  NQO1 activity (5 μM, [nmol cytochrome C reduced/min/μg protein]): 94.0 nmol cytochrome C reduced/min/μg protein
[2]
  Lactate change amount within cells (nmol/mg cell): 5.8 nmol/mg cell

## CC(=O)Nc1ccc2c(c1)C(=O)C(=O)c1[nH]c(C(C)C)nc1-2 [Example 19]
[1]
  NQO1 activity (5 μM, [nmol cytochrome C reduced/min/μg protein]): 24.6 nmol cytochrome C reduced/min/μg protein
[2]
  Lactate change amount within cells (nmol/mg cell): 6.5 nmol/mg cell

## CCc1nc2c([nH]1)C(=O)C(=O)c1cc([N+](=O)[O-])ccc1-2 [Example 24]
[1]
  NQO1 activity (5 μM, [nmol cytochrome C reduced/min/μg protein]): 208.2 nmol cytochrome C reduced/min/μg protein
[2]
  Lactate change amount within cells (nmol/mg cell): 4.3 nmol/mg cell

## CCc1nc2c([nH]1)C(=O)C(=O)c1cc(N)ccc1-2 [Example 25]
[1]
  NQO1 activity (5 μM, [nmol cytochrome C reduced/min/μg protein]): 173.1 nmol cytochrome C reduced/min/μg protein
[2]
  Lactate change amount within cells (nmol/mg cell): 6.1 nmol/mg cell

## CC(C)(C)c1nc2c([nH]1)C(=O)C(=O)c1cccnc1-2 [Example 27]
[1]
  NQO1 activity (5 μM, [nmol cytochrome C reduced/min/μg protein]): 207.4 nmol cytochrome C reduced/min/μg protein
[2]
  Lactate change amount within cells (nmol/mg cell): 9.6 nmol/mg cell

## CC(C)C(=O)n1c(C(C)C)nc2c1C(=O)C(=O)c1ccccc1-2 [Example 28]
[1]
  NQO1 activity (5 μM, [nmol cytochrome C reduced/min/μg protein]): 177.2 nmol cytochrome C reduced/min/μg protein
[2]
  Lactate change amount within cells (nmol/mg cell): 6.8 nmol/mg cell

## CC(C)c1nc2c(n1C(=O)OC(C)(C)C)C(=O)C(=O)c1ccccc1-2 [Example 29]
[1]
  NQO1 activity (5 μM, [nmol cytochrome C reduced/min/μg protein]): 215.6 nmol cytochrome C reduced/min/μg protein
[2]
  Lactate change amount within cells (nmol/mg cell): 8.1 nmol/mg cell

## CC(C)c1nc2c(n1C(=O)OCc1ccccc1)C(=O)C(=O)c1ccccc1-2 [Example 31]
[1]
  NQO1 activity (5 μM, [nmol cytochrome C reduced/min/μg protein]): 127.1 nmol cytochrome C reduced/min/μg protein
[2]
  Lactate change amount within cells (nmol/mg cell): 5.1 nmol/mg cell

## CC(C)c1nc2c(n1Cc1ccccc1)C(=O)C(=O)c1ccccc1-2 [Example 32]
[1]
  NQO1 activity (5 μM, [nmol cytochrome C reduced/min/μg protein]): 124.2 nmol cytochrome C reduced/min/μg protein
[2]
  Lactate change amount within cells (nmol/mg cell): 5.8 nmol/mg cell

## CC(C)c1nc2c(n1Cc1cccc(Cl)c1)C(=O)C(=O)c1ccccc1-2 [Example 34]
[1]
  NQO1 activity (5 μM, [nmol cytochrome C reduced/min/μg protein]): 153.5 nmol cytochrome C reduced/min/μg protein
[2]
  Lactate change amount within cells (nmol/mg cell): 4.9 nmol/mg cell

## CCn1c(C(C)C)nc2c1C(=O)C(=O)c1ccccc1-2 [Example 36]
[1]
  NQO1 activity (5 μM, [nmol cytochrome C reduced/min/μg protein]): 164.6 nmol cytochrome C reduced/min/μg protein
[2]
  Lactate change amount within cells (nmol/mg cell): 7.8 nmol/mg cell

## CCOC(=O)n1c(C(C)C)nc2c1C(=O)C(=O)c1ccccc1-2 [Example 37]
[1]
  NQO1 activity (5 μM, [nmol cytochrome C reduced/min/μg protein]): 215.7 nmol cytochrome C reduced/min/μg protein
[2]
  Lactate change amount within cells (nmol/mg cell): 10.3 nmol/mg cell

## CCc1nc2c(n1C)-c1ccccc1C(=O)C2=O [Example 39, 2-ethyl-1-methyl-1H-naphtho[2,1-d]imidazole-4,5-dione]
[1]
  NQO1 activity (5 μM, [nmol cytochrome C reduced/min/μg protein]): 104.7 nmol cytochrome C reduced/min/μg protein
[2]
  Lactate change amount within cells (nmol/mg cell): 8.4 nmol/mg cell

## CCc1nc2c(n1CC(F)(F)F)C(=O)C(=O)c1ccccc1-2 [Example 40, 2-ethyl-3-(2,2,2-trifluoroethyl)-3H-naphtho[2,1-d]imidazole-4,5-dione]
[1]
  NQO1 activity (5 μM, [nmol cytochrome C reduced/min/μg protein]): 192.9 nmol cytochrome C reduced/min/μg protein
[2]
  Lactate change amount within cells (nmol/mg cell): 9.7 nmol/mg cell

## CCc1nc2c(n1C)-c1ccc(F)cc1C(=O)C2=O [Example 42, 2-ethyl-7-fluoro-1-methyl-1H-naphtho[2,1-d]imidazole-4,5-dione]
[1]
  NQO1 activity (5 μM, [nmol cytochrome C reduced/min/μg protein]): 57.0 nmol cytochrome C reduced/min/μg protein
[2]
  Lactate change amount within cells (nmol/mg cell): 8.9 nmol/mg cell

## CCc1nc2c(n1C)C(=O)C(=O)c1cc(Cl)ccc1-2 [Example 43, 7-chloro-2-ethyl-3-methyl-3H-naphtho[2,1-d]imidazole-4,5-dione]
[1]
  NQO1 activity (5 μM, [nmol cytochrome C reduced/min/μg protein]): 111.6 nmol cytochrome C reduced/min/μg protein
[2]
  Lactate change amount within cells (nmol/mg cell): 6.0 nmol/mg cell

## CCc1nc2c(n1C)-c1ccc(Cl)cc1C(=O)C2=O [Example 44, 7-chloro-2-ethyl-1-methyl-1H-naphtho[2,1-d]imidazole-4,5-dione]
[1]
  NQO1 activity (5 μM, [nmol cytochrome C reduced/min/μg protein]): 43.4 nmol cytochrome C reduced/min/μg protein
[2]
  Lactate change amount within cells (nmol/mg cell): 9.5 nmol/mg cell

## CC(C)(C)c1nc2c(n1Cc1ccccc1)C(=O)C(=O)c1cccnc1-2 [Example 46, 3-benzyl-2-tert-butyl-3H-imidazo[4,5-h]quinoline-4,5-dione]
[1]
  NQO1 activity (5 μM, [nmol cytochrome C reduced/min/μg protein]): 160.1 nmol cytochrome C reduced/min/μg protein
[2]
  Lactate change amount within cells (nmol/mg cell): 8.9 nmol/mg cell
